Results taken from ChEMBL document CHEMBL1201862, “PubChem BioAssay data set” (2004).
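Following 48 hours of exposure in 96-well plates, responses at five concentrations were used to interpolate endpoints linearly. The concentration for 50% growth inhibition is given as GI50.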 The source made the active and inactive calls. No stated cut-off is given here; in the data, active = GI50 up to about 1.1 µM and inactive = higher.

What was measured:
Assay in all cases: NCI-60 cell line screen, 48 h
[1] = system: A498
[2] = system: BT-549
[3] = system: EKVX
[4] = system: HCC 2998
[5] = system: HCT-116
[6] = system: HCT-15
[7] = system: HT-29
[8] = system: K562
[9] = system: MDA-MB-435
[10] = system: MDA-N
[11] = system: Malme-3M
[12] = system: NCI-H522
[13] = system: OVCAR-3
[14] = system: OVCAR-5
[15] = system: SK-OV-3
[16] = system: SNB-75
[17] = system: SW-620
[18] = system: U-251
[19] = system: UACC-62

| SMILES | GI50 [1] | GI50 [2] | GI50 [3] | GI50 [4] | GI50 [5] | GI50 [6] [µM] | GI50 [7] | GI50 [8] | GI50 [9] | GI50 [10] | GI50 [11] | GI50 [12] | GI50 [13] | GI50 [14] | GI50 [15] | GI50 [16] | GI50 [17] | GI50 [18] | GI50 [19] |
| --- | --- | --- | --- | --- | --- | --- | --- | --- | --- | --- | --- | --- | --- | --- | --- | --- | --- | --- | --- |
| COc1ncc(C#CC(=O)c2ccccc2)c(OC)n1 | 17.9 µM (inactive) | 2.17 µM (inactive) | 3.51 µM (inactive) | 6.12 µM (inactive) | 4.95 µM (inactive) | 1.37 | 1.88 µM (inactive) | 0.726 µM (active) | 3.91 µM (inactive) | 1.71 µM (inactive) | 1.67 µM (inactive) | 1.27 µM (inactive) | 5.11 µM (inactive) | 5.04 µM (inactive) | 19.7 µM (inactive) | 5.2 µM (inactive) | 1.63 µM (inactive) | 4.71 µM (inactive) | 4.03 µM (inactive) |
| O=C1C(Cl)=C(N2CCN(c3ccccn3)CC2)C(=O)c2ncccc21 | 11.3 µM (inactive) | 1.79 µM (inactive) | 11.9 µM (inactive) | 16.7 µM (inactive) | 1.74 µM (inactive) | 1.66 | 3.13 µM (inactive) | 1.33 µM (inactive) | 1.69 µM (inactive) | 1.76 µM (inactive) | 1.75 µM (inactive) | 1.67 µM (inactive) | 1.69 µM (inactive) | 7.87 µM (inactive) | 7 µM (inactive) | 6.21 µM (inactive) | 2.03 µM (inactive) | 4.38 µM (inactive) | 2.45 µM (inactive) |
| Cn1c(CO)ccc1-c1ccc(-c2ccc[se]2)[se]1 | 0.0349 µM (active) | 21.8 µM (inactive) | 35.1 µM (inactive) | 0.798 µM (active) | – | 35.9 | 31.7 µM (inactive) | 0.449 µM (active) | 12.6 µM (inactive) | 15.5 µM (inactive) | > 72.1 µM (inactive) | 61.9 µM (inactive) | – | – | 13.6 µM (inactive) | 12.8 µM (inactive) | 0.0959 µM (active) | – | – |
| CCNC(=S)N/N=C(\C)c1cccc(C)n1 | 13.5 µM (inactive) | 31.5 µM (inactive) | 2.04 µM (inactive) | 3.13 µM (inactive) | 7.18 µM (inactive) | 7.18 | 3.09 µM (inactive) | 1.78 µM (inactive) | 20.5 µM (inactive) | 28.2 µM (inactive) | 2.39 µM (inactive) | 0.897 µM (active) | 0.299 µM (active) | 9.31 µM (inactive) | 13.1 µM (inactive) | 75.2 µM (inactive) | 18.6 µM (inactive) | 7.43 µM (inactive) | 15.4 µM (inactive) |
| OC(CCN1CCN(CCOC(c2ccc(F)cc2)c2ccc(F)cc2)CC1)c1ccc(Br)cc1 (stereo not drawn) | 2.12 µM (inactive) | 5.83 µM (inactive) | 5.15 µM (inactive) | 1.97 µM (inactive) | 2.8 µM (inactive) | 2.74 | 3.32 µM (inactive) | 2.45 µM (inactive) | 2.27 µM (inactive) | 2.61 µM (inactive) | 2.12 µM (inactive) | 5.74 µM (inactive) | 3.34 µM (inactive) | 15.5 µM (inactive) | 7.35 µM (inactive) | 9.77 µM (inactive) | 4.67 µM (inactive) | 4.11 µM (inactive) | 4.06 µM (inactive) |
| O=C(c1ccc(Cl)c(Cl)c1)N(Cc1cccnc1)C(=S)N(Cc1cccnc1)C(=O)c1ccc(Cl)c(Cl)c1 | 33.9 µM (inactive) | 22.9 µM (inactive) | 40.6 µM (inactive) | 20.5 µM (inactive) | 25.2 µM (inactive) | 20 | 24 µM (inactive) | 30.3 µM (inactive) | 62.5 µM (inactive) | 23.9 µM (inactive) | 52.8 µM (inactive) | 20.9 µM (inactive) | 25.5 µM (inactive) | 29.2 µM (inactive) | > 100 µM (inactive) | 38.4 µM (inactive) | 29.2 µM (inactive) | 29.3 µM (inactive) | 50.7 µM (inactive) |
| C=C(C)CCC(O)[C@](C)(O)[C@H]1[C@H](O)C[C@@]2(C)[C@@H]3CCc4c(cc(OC5OC(CO)C(O)C(O)C5O)c(O)c4C)C3(C)C(=O)C[C@]12C (stereo partly drawn) | > 100 µM (inactive) | > 100 µM (inactive) | > 100 µM (inactive) | > 100 µM (inactive) | > 100 µM (inactive) | > 100 | > 100 µM (inactive) | > 100 µM (inactive) | > 100 µM (inactive) | > 100 µM (inactive) | > 100 µM (inactive) | > 100 µM (inactive) | > 100 µM (inactive) | > 100 µM (inactive) | > 100 µM (inactive) | > 100 µM (inactive) | > 100 µM (inactive) | > 100 µM (inactive) | > 100 µM (inactive) |
